Consider 2 compounds from patent publication US12029755B2, “Carbon monoxide-based therapies and implantable devices for the treatment of vascular disease” (THE REGENTS OF THE UNIVERSITY OF MICHIGAN, priority 2017, dated 2024).

One data set deals with humans. The conditions noted are these: dose up to 500 ppm, clinical trials; cited from earlier work.
Data set [1] deals with heme oxygenase-1 expression. Kind of data set: HO-1 expression in sham-operated WT IVC by quantitative RT-PCR and immunoblotting. It counts as in vivo, mouse. The conditions noted are these: CO exposure (inhaled CO or CORM), sham-operated WT IVC compared with normoxic controls. As to the method: Also, it was determined that CO exposure (inhaled CO or CORM) induces heme oxygenase-1 expression in sham-operated WT IVC compared with normoxic controls by quantitative RT-PCR and immunoblotting. Therefore, inhaled CO can trigger a venous anti-inflammatory and anti-thrombotic program. Also, whether CO or CORM treatment alone is sufficient to rescue HO-1^−/− mice from exaggerated early venous thrombosis was assessed. HO-1^−/− mice undergo venous stasis or stenosis thrombus induction, followed by CORM or inhaled CO treatment. Thrombus size was measured at the time of expected peak thrombus burden.

The test system of the next data set is WT mice. Description: IVC ligation (stasis) model of venous thrombosis with inhaled CO exposure. Format: in vivo, mouse. Particulars: for Venous stasis thrombus burden / Vessel wall leukocyte infiltration: 7 d inhaled CO, 250 ppm for 1 hour twice daily, after IVC ligation, vs normoxia-treated controls. As for the experimental part: Carbon monoxide was focused on for these studies because it is an end product from heme degradation by HO-1.
The effect of CO on large vein thrombogenesis was determined. WT mice undergo venous thrombus induction by stasis or stenosis, followed by exposure to inhaled CO (250 ppm) for one hour twice daily. […] Thrombus burden was assessed as in SA1 indirectly (ultrasound, FIG. 6) and directly (thrombus weight/length), at pre-determined time points after surgery (1 d, 2 d, 7 d, 10 d, 21 d).
The mouse makes an excellent animal model of stasis-induced venous thrombosis. Mice, weighing 20 to 30 g, were anesthetized with an inhalation mixture of isoflurane gas (1.5% to 2%) and oxygen (100%), placed in dorsal recumbency and aseptically prepped for surgery. A midline laparotomy was made, the small bowel was exteriorized from the body cavity and moved slightly to the left of the animal, and then the IVC was directly approached by careful blunt dissection. Blunt dissection was facilitated using a sterile applicator swab and extra delicate half curved tissue forceps. Care was taken in handling mouse tissue due to its fragility. Periodically, the exteriorized bowel was moistened with sterile saline to prevent its desiccation. For consistent thrombus formation (90 to 95%), ligation of the IVC with a 7-0 prolene below the renal veins, ligation of an occasional side venous branch and cauterization of a deep posterior branch was performed if indicated to account for normal variation in anatomy. The laparotomy incision was closed in a 2-layer fashion using a 5-0 nonreactive suture material and VetBond glue (3M). Harvest of the IVC was performed at pre-determined time points.
Inhaled Carbon monoxide exposure: Mice were randomly assigned to the normoxia or carbon monoxide exposure group prior to IVC ligation or stenosis surgery. The carbon monoxide group was exposed to 250 ppm CO at a flow rate of 10 L/min for 1 h twice daily. One cohort of mice received “pre-conditioning” with CO exposure 1 day prior to surgery. To achieve 75% O2, 100% O2 is delivered at a flow rate of 0.5 l/min into a custom-made 1.5-m^3 plastic chamber. Oxygen concentrations were monitored continuously with an oxygen analyzer (Neutronics, Exton, PA), gas lines were filtered with activated charcoal to remove excess ammonia, and calcium chloride used to maintain CO2 levels below 0.05%. A CO analyzer (Ntron model 1100; Neutronics, Exton, PA) were used to monitor CO levels continuously in the chamber.

The test system of a further data set is C57B/6J mice. Description: IVC flow-restriction (stenosis) model of venous thrombosis. Format: in vivo, mouse. As for the experimental part: To determine whether carbon monoxide-releasing molecules can be used as a therapeutic in prevention of flow-restriction mediated venous thrombosis (a model of venous thrombosis that mimics human venous clot, unlike IVC ligation), mice were injected with CORM-3 (Sigma SML0496, 10 mg/kg intraperitoneal injection) and subjected to IVC flow-restriction to induce thrombosis. Remarkably, CORM-3 treated mice developed no venous thrombus (0%, n=5) compared with controls (48%, n=21. P=0.001).
“Flow restriction” (Stenosis) thrombosis model: Partial IVC stenosis Model of Venous Thrombosis (FIG. 5) This model is a “flow-restriction” (or “stenosis) model in which the lumen is reduced by ˜90%. This model invokes disturbed flow at the stenosis site as a model for turbulent flow in venous valve pockets, where thrombi frequently develop. It also has applications to human venous “impingement” conditions, such as May Thurner syndrome. Mice, weighing 20 to 30 g, were anesthetized using an inhalation mixture of isoflurane gas (1.5%-2%) and oxygen (100%), placed in dorsal recumbence, and the IVC was approached directly via a midline laparotomy utilizing aseptic technique. A 7-0 Prolene suture (Ethicon, Inc. Somerville, NJ) was fastened around the IVC over a blunted 30-gauge needle (which serves as a spacer). […] Mice were humanely euthanized and thrombus formation assessed 2-7 days after laparotomy.

For the compound `[C-]#[O+]` [CO, carbon monoxide], in the data set with humans, the “Safety of inhaled CO dose” value was “safe”. The “Heme oxygenase-1 expression in IVC” value in data set [1] is “induces”. For the same compound, in the data set with WT mice, the “Venous stasis thrombus burden” value is reported as “reduced” and the “Vessel wall leukocyte infiltration” value is reported as “reduced”. For the same compound, in the data set with WT mice (listed as carbon monoxide), the “Venous stasis thrombus burden” value is given as “profound reduction” and the “Vessel wall leukocyte infiltration” value is “profound reduction”. For the same compound, in the data set on WT mice (WT mice, thrombus induction by stasis or stenosis, inhaled CO 250 ppm one hour twice daily), the “Thrombus size at 7 days” value is “robust reduction”.
With `NCC(=O)O.[CH+]=O.[CH+]=O.[CH+]=O.[Cl][Ru]` [CORM-3, tricarbonylchloro(glycinato)ruthenium (II)], the “Protection from venous thrombus compared with controls” value with C57B/6J mice (C57B/6J mice treated with CORM-3, VT induction by IVC flow-restriction) was “protected from venous thrombus”. For the same compound, in the data set with C57B/6J mice (CORM-3 10 mg/kg intraperitoneal injection, IVC flow-restriction, n=5, controls 48% (n=21)), the “Frequency of clot (venous thrombus)” value is reported as 0%.
